From patent US20170283340A1, “ALKYL THIOPHOSPHORIC TRIAMIDE AND NEEM OIL SOLVENT SYSTEMS FOR USE IN AGRICULTURAL APPLICATIONS” (RHODIA OPERATIONS, priority 2016, published 2017)

Legend:
[1] = Thermal stability of NBPT at high temperature; type: physicochemical; settings: followed by sludge/precipitate formation after weeks of high heat
Method: Another problem is that certain nitrification inhibitors and/or urease inhibitors degrade at certain high temperatures. […] Often times temperatures in agricultural fields (e.g., corn fields, wheat fields, etc.) reach in excess of 35° C. and sometimes can reach up to 45° C. or higher. For example, at 45° C. […] Thus, it is also desirable to have solvent systems containing nitrification inhibitors and/or urease inhibitors that are stabilized at high temperatures, such as those utilized in hot climates or weather. This invention addresses the addition of co-solvents and/or stabilizers to prolong the chemical and physical stability of formulated liquid agricultural compositions containing (i) one or more nitrification inhibitors, (ii) one or more urease inhibitors or (iii) a combination of both (i) and (ii). In one embodiment, the at least one urease inhibitor is NBPT. In one embodiment, the at least one nitrification inhibitor a natural nitrification inhibitor. In yet another embodiment, the at least one nitrification inhibitor is neem.

[2] = typically above 45° C.; cited from earlier work
[3] = cited from earlier work

Compound | appearance of NBPT formulated in different solvents at 45° C. [1] | degradation at higher temperature [2] | solubility in water [3]
CCCCNP(N)(N)=S [NBPT, N-(n-butyl)-thiophosphoric triamide] | changes color in days from colorless to a darker green/brown | degrades rapidly | –
N#CNC(=N)N [dicyandiamide, Dicyandiamide] | – | – | about 41 g/l
